Results from US11248234B2, “Herbicide-resistant hydroxyphenylpyruvate dioxygenases” (BASF SE, priority 2015, dated 2022).
“Also recorded” adds a separate entry of the source.

Tests used:
[1] = test system: transgenic Arabidopsis plants (T2) SoHPPD F363I (short); experiment: Greenhouse spray test, injury evaluation; assay type: in vivo, Arabidopsis thaliana; details: 14 DAT
Method: (§1) Non-transgenic control plants were treated in parallel and pictures taken 14 days after treatment.
(§2) For post emergence treatment, the test plants are first grown to a height of 3 to 15 cm, depending on the plant habit, and only then treated with the herbicides. For this purpose, the test plants are either sown directly and grown in the same containers, or they are first grown separately and transplanted into the test containers a few days prior to treatment.
(§3) Additionally, T1 and T2 transgenic Arabidopsis plants can be tested for improved tolerance to HPPD-inhibiting herbicides in greenhouse studies. Herbicide injury scoring is done 2-3 weeks after treatment and is rated on a scale of 0 to 100%, 0% being no injury and 100% being complete death.
(§4) Transgenic T2 Arabidopsis plants were sprayed with a range of doses from 1.56-25 g/ha of different HPPD-inhibiting herbicides and injury evaluations were taken two weeks after treatment (FIG. 4). As depicted in Table 8, control plants were severely injured by all doses of herbicides applied, with at least 58% of leaf material being damaged at the lowest application rate and 100% leaf damage at the second application rate.

[2] = test system: transgenic Arabidopsis plants (T2) SoHPPD Q317H (short); experiment: Greenhouse spray test, injury evaluation; assay type: in vivo, Arabidopsis thaliana; details: for Injury: 14 DAT
Method: as §1, §2, §3, §4

[3] = test system: T2 Arabidopsis plants expressing mutated variants of Scenedesmus HPPD (all traits and events); experiment: Greenhouse spray test, injury evaluation; assay type: in vivo, Arabidopsis thaliana; details: for leaf damage: two lowest application rates (1.56 g/ha and 6.25 g/ha)
Method: as §1, §2, §3, §4

SoHPPD V251A (short) = experiment: In vitro HPPD activity assay; assay type: biochemical, Scenedesmus obliquus; details: normalized on Arabidopsis wild-type HPPD (SEQ ID NO:42)
Method: (§5) HPPD produces homogentisic acid and CO2 from 4-hydroxyphenylpyruvate (4-HPP) and O2. The activity assay for HPPD is based on the analysis of homogentisic acid by reversed phase HPLC.
(§6) The assay mixture can contain 150 mM potassium phosphate buffer pH 7.0, 50 mM L-ascorbic acid, 100 μM Catalase (Sigma-Aldrich), 1 μM FeSO4 and 0.2 units of purified mutated HPPD enzyme in a total volume of 505 μl. 1 unit is defined as the amount of enzyme that is required to produce 1 nmol of HGA per minute at 20° C.
(§7) After a preincubation of 30 min the reaction is started by adding 4-HPP to a final concentration of 0.05 mM. The reaction is allowed to proceed for 45 min at room temperature. The reaction is stopped by the addition of 50 μl of 4.5 M phosphoric acid. The sample is filtered using a […] pore size PVDF filtration device.
(§8) 5 μl of the cleared sample is analyzed on an UPLC HSS T3 column (particle size 1.8 μm, dimensions 2.1×50 mm; Waters) by isocratic elution using 90% 20 mM NaH2PO4 pH 2.2, 10% methanol (v/v).
(§9) HGA is detected electrochemically at 750 mV (mode: DC; polarity: positive) and quantified by integrating peak areas (Empower software; Waters).
(§10) Inhibitors are dissolved in DMSO (dimethylsulfoxide) to a concentration of 0.5 mM. From this stock solution serial five-fold dilutions are prepared in DMSO, which are used in the assay. The respective inhibitor solution accounts for 1% of the assay volume. Thus, final inhibitor concentrations range from 5 μM to 320 pM, respectively. Activities are normalized by setting the uninhibited enzyme activity to 100%. IC50 values are calculated using non-linear regression.
(§11) Using methods which are described in the above examples or well known in the art, purified, recombinant mutated HPPD enzymes are characterized with respect to their kinetic properties and sensitivity towards HPPD inhibiting herbicides. Apparent michaelis constants (Km) and maximal reaction velocities (Vmax) are calculated by non-linear regression with the software GraphPad Prism 5 (GraphPad Software, La Jolla, USA) using a substrate inhibition model. Apparent kcat values are calculated from Vmax assuming 100% purity of the enzyme preparation. Weighted means (by standard error) of Km and IC50 values are calculated from at least three independent experiments. The Cheng-Prusoff equation for competitive inhibition (Cheng, Y. C.; Prusoff, W. H. Biochem Pharmacol 1973, 22, 3099-3108) is used to calculate dissociation constants (Ki).
(§12) Field performance of the HPPD enzyme, which is used as a herbicide tolerance trait may depend not only on its lack of sensitivity towards HPPD inhibiting herbicides but also on its activity. To assess the potential performance of a herbicide tolerance trait a tolerance index (TI) is calculated using the following formula: […]
(§13) Easy comparison and ranking of each trait is enabled by normalizing tolerance indexes on Arabidopsis wild-type HPPD.

SoHPPD L367V, I375L = experiment: In vitro HPPD activity assay; assay type: biochemical, Scenedesmus obliquus; details: normalized on Arabidopsis wild-type HPPD (SEQ ID NO:42)
Method: as §5, §6, §7, §8, §9, §10, §11, §12, §13

[4] = test system: SoHPPD R327G, E421D (short); experiment: In vitro HPPD activity assay; assay type: biochemical, Scenedesmus obliquus; details: normalized on Arabidopsis wild-type HPPD (SEQ ID NO:42)
Method: as §5, §6, §7, §8, §9, §10, §11, §12, §13

SoHPPD E345Q (short) = experiment: In vitro HPPD activity assay; assay type: biochemical, Scenedesmus obliquus; details: normalized on Arabidopsis wild-type HPPD (SEQ ID NO:42)
Method: as §5, §6, §7, §8, §9, §10, §11, §12, §13

[5] = test system: SoHPPD K326E, E345Q (short); experiment: In vitro HPPD activity assay; assay type: biochemical, Scenedesmus obliquus; details: normalized on Arabidopsis wild-type HPPD (SEQ ID NO:42)
Method: as §5, §6, §7, §8, §9, §10, §11, §12, §13

SoHPPD H306K (short) = experiment: In vitro HPPD activity assay; assay type: biochemical, Scenedesmus obliquus; details: normalized on Arabidopsis wild-type HPPD (SEQ ID NO:42)
Method: as §5, §6, §7, §8, §9, §10, §11, §12, §13

[6] = test system: SoHPPD V251A, H306R, Q317L, A318P, G321P, K331E, L350M (short); experiment: In vitro HPPD activity assay; assay type: biochemical, Scenedesmus obliquus; details: normalized on Arabidopsis wild-type HPPD (SEQ ID NO:42)
Method: as §5, §6, §7, §8, §9, §10, §11, §12, §13

SoHPPD E379Q (short) = experiment: In vitro HPPD activity assay; assay type: biochemical, Scenedesmus obliquus; details: normalized on Arabidopsis wild-type HPPD (SEQ ID NO:42)
Method: as §5, §6, §7, §8, §9, §10, §11, §12, §13

[7] = test system: SoHPPD Q317H, A318G, E345Q (short); experiment: In vitro HPPD activity assay; assay type: biochemical, Scenedesmus obliquus; details: normalized on Arabidopsis wild-type HPPD (SEQ ID NO:42)
Method: as §5, §6, §7, §8, §9, §10, §11, §12, §13

SoHPPD Q317M (short) = experiment: In vitro HPPD activity assay; assay type: biochemical, Scenedesmus obliquus; details: normalized on Arabidopsis wild-type HPPD (SEQ ID NO:42)
Method: as §5, §6, §7, §8, §9, §10, §11, §12, §13

SoHPPD F363I (short) = experiment: In vitro HPPD activity assay; assay type: biochemical, Scenedesmus obliquus; details: normalized on Arabidopsis wild-type HPPD (SEQ ID NO:42)
Method: as §5, §6, §7, §8, §9, §10, §11, §12, §13

SoHPPD A318R, L350M = experiment: In vitro HPPD activity assay; assay type: biochemical, Scenedesmus obliquus; details: normalized on Arabidopsis wild-type HPPD (SEQ ID NO:42)
Method: as §5, §6, §7, §8, §9, §10, §11, §12, §13

SoHPPD Q317H (short) = experiment: In vitro HPPD activity assay; assay type: biochemical, Scenedesmus obliquus; details: normalized on Arabidopsis wild-type HPPD (SEQ ID NO:42)
Method: as §5, §6, §7, §8, §9, §10, §11, §12, §13

SMILES | Injury ([1]; Event B, 1.56 g ai/ha) [%] | Injury ([1]; Event B, 6.25 g ai/ha) [%] | Injury ([1]; Event B, 25 g ai/ha) [%] | Injury ([1]; Event C, 1.56 g ai/ha) [%] | Injury ([1]; Event C, 6.25 g ai/ha) [%] | Injury ([1]; Event C, 25 g ai/ha) [%] | Injury ([2]; Event B, 1.56 g ai/ha) [%] | TI (normalized tolerance index) (SoHPPD V251A (short)) | TI (normalized tolerance index) (SoHPPD L367V, I375L) | TI (normalized tolerance index) [4] | TI (normalized tolerance index) (SoHPPD E345Q (short)) | TI (normalized tolerance index) [5] | TI (normalized tolerance index) (SoHPPD H306K (short)) | TI (normalized tolerance index) [6] | TI (normalized tolerance index) (SoHPPD E379Q (short)) | TI (normalized tolerance index) [7] | TI (normalized tolerance index) (SoHPPD Q317M (short)) | TI (normalized tolerance index) (SoHPPD F363I (short)) | TI (normalized tolerance index) (SoHPPD A318R, L350M) | TI (normalized tolerance index) (SoHPPD Q317H (short)) | also measured
Cc1c(C(=O)c2cnn(C)c2O)ccc(S(C)(=O)=O)c1C1=NOCC1 [Inhibitor 1, [3-(4,5-dihydroisoxazol-3-yl)-2-methyl-4-methylsulfonyl-phenyl]-(5-hydroxy-1-methyl-pyrazol-4-yl)methanone] | 0 | 0 | 0 | 0 | 0 | 0 | 0 | – | – | – | – | – | – | – | – | – | – | – | – | – | Injury ([2]; Event B, 6.25 g ai/ha): 0%; Injury ([2]; Event B, 25 g ai/ha): 18%; Injury ([2]; Event C, 1.56 g ai/ha): 0%; Injury ([2]; Event C, 6.25 g ai/ha): 0%; Injury ([2]; Event C, 25 g ai/ha): 10%; leaf material being damaged ([3]; 25 g/ha): less than 20%; leaf damage [3]: 0-8%
CS(=O)(=O)c1ccc(C(=O)C2C(=O)CCCC2=O)c([N+](=O)[O-])c1 [Inhibitor 2, 2-(4-methylsulfonyl-2-nitro-benzoyl)cyclohexane-1,3-dione] | 0 | 0 | 3 | 5 | 0 | 0 | 0 | 0.0 | 0.0 | 0.2 | 0.5 | 0.0 | 0.1 | 0.7 | 0.0 | 0.4 | 0.6 | 0.8 | 0.1 | 0.2 | average damage (leaf injury) ([2]; 25 g ai/ha, average of events): 34%; Injury ([2]; Event B, 6.25 g ai/ha): 0%; Injury ([2]; Event B, 25 g ai/ha): 33%; Injury ([2]; Event C, 1.56 g ai/ha): 0%; Injury ([2]; Event C, 6.25 g ai/ha): 3%; Injury ([2]; Event C, 25 g ai/ha): 35%; leaf damage [3]: did not show leaf injury
CCS(=O)(=O)c1cc(C(F)(F)F)ccc1C1=C(O)c2ncccc2C(C)(C)S1(=O)=O [Inhibitor 4, 7-[2-ethylsulfonyl-4-(trifluoromethyl)phenyl]-5,5-dimethyl-6,6-dioxo-thiopyrano[4,3-b]pyridin-8-ol] | – | – | – | – | – | – | – | 0.0 | 0.2 | 0.0 | 0.3 | 0.0 | 0.3 | 0.0 | 0.1 | 1.4 | 1.3 | 0.3 | 0.3 | 0.6 | –
CC(=O)N(C)c1c(Cl)ccc(C2=C(O)c3ncccc3C(C)(C)S2(=O)=O)c1Cl [Inhibitor 5, N-[2,6-dichloro-3-(8-hydroxy-5,5-dimethyl-6,6-dioxo-thiopyrano[4,3-b]pyridin-7-yl)phenyl]-N-methyl-acetamide] | – | – | – | – | – | – | – | 0.0 | 0.1 | 0.3 | 0.2 | 0.0 | 0.2 | 0.3 | 0.0 | 0.9 | 0.9 | 0.6 | 0.2 | 0.4 | –
CCSc1ccc(Cl)c(C(=O)Nc2nnnn2C)c1Cl [Inhibitor 8, 2,6-dichloro-3-ethylsulfanyl-N-(1-methyltetrazol-5-yl)benzamide] | – | – | – | – | – | – | – | 0.1 | 0.0 | 0.5 | 0.5 | 0.1 | 0.3 | 0.2 | 0.4 | 1.0 | 0.8 | not inhibited; also recorded: no inhi- | 0.2 | 0.5 | –
